Series [1] has as its target D(2) dopamine receptor (Homo sapiens) (UniProt P14416). The note with it: Compound concentration 10.0 uM.
The target in series [2] is Serine/threonine-protein kinase Nek7 (Homo sapiens, UniProt Q8TDX7). The series can be described thus: Inhibition of NEK7 at compound concentration of 10.0 uM using the ScanMax (DiscoverX).
For the next series, the target named is Ephrin type-A receptor 1 (Homo sapiens, UniProt P21709). Briefly: Inhibition of EPHA1 at compound concentration of 10.0 uM using the ScanMax (DiscoverX).
Series [3] addresses D(3) dopamine receptor (Homo sapiens) (UniProt P35462). Briefly: D3 (h) Ligand binding assay. The settings on record: Compound concentration 10.0 uM.
In series [4] the target is Cholecystokinin receptor type A (Homo sapiens) (UniProt P32238). The series can be described thus: CCKA (h) Ligand binding assay. The note with it: Compound concentration 10.0 uM.
Series [5] concerns the target Histamine H2 receptor (Homo sapiens) (UniProt P25021). Briefly: H2 Ligand binding assay. The settings on record: Compound concentration 10.0 uM.
A further series concerns the target sodium channel (site 2) (Homo sapiens, UniProt P35498+P35499+Q01118+Q14524+Q15858+Q99250+Q9NY46+Q9UI33+Q9UQD0+Q9Y5Y9). The series can be described thus: Na+ channel (site 2) Ligand binding assay. In kind it is protein assay.
In series [6] the target is Prostacyclin receptor (Homo sapiens) (UniProt P43119). The series can be described thus: PGI2 (h) Ligand binding assay. The settings on record: Compound concentration 10.0 uM.
The target of series [7] is T1, Muscarinic acetylcholine receptor M5 (Homo sapiens) (UniProt P08912).
T1 sequence (whole entry): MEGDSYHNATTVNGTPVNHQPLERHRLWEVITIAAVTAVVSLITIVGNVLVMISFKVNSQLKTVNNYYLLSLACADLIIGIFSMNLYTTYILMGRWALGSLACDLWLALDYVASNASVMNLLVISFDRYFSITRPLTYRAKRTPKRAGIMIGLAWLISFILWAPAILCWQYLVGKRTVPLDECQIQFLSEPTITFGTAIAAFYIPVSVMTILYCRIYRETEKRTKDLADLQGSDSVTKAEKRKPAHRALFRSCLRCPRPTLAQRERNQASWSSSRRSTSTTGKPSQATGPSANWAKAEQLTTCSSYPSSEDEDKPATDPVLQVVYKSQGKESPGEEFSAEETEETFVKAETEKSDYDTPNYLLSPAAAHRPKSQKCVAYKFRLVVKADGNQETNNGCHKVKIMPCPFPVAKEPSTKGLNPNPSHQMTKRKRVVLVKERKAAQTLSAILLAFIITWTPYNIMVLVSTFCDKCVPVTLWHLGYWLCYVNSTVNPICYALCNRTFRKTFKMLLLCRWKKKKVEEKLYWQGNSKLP
The series can be described thus: M5 (h) Ligand binding assay. The settings on record: Compound concentration 10.0 uM.

For series [8], the target named is Melatonin receptor type 1A (Homo sapiens) (UniProt P48039). The series can be described thus: ML1 Ligand binding assay. The settings on record: Compound concentration 10.0 uM.
Series [9] deals with Nociceptin receptor (Homo sapiens) (UniProt P41146). Briefly: ORL-1 (h) Ligand binding assay. The note with it: Compound concentration 10.0 uM.
Series [10] has as its target D(2) dopamine receptor (Homo sapiens) (UniProt P14416). The series can be described thus: D2 (h) Ligand binding assay. The settings on record: Compound concentration 10.0 uM.
Series [11] addresses L-type calcium channel (verapamil site) (Homo sapiens, UniProt O60840+Q01668+Q13698+Q13936). Briefly: Ca2+ channel (L verapamil site) Ligand binding assay. Format: protein assay.
The target of series [12] is Beta-1 adrenergic receptor (Homo sapiens) (UniProt P08588). The settings on record: Compound concentration 10.0 uM.
In series [13] the target is Neurotensin receptor type 1 (Homo sapiens) (UniProt P30989). The series can be described thus: NT1 (h) Ligand binding assay. The settings on record: Compound concentration 10.0 uM.
For series [14], the target named is T2, Histamine H1 receptor (Homo sapiens, UniProt P35367). The series can be described thus: GPCRScan assay: inhibition of H1. Details: radioligand conc. used [nm] 0.6 – 2.0, parental cells stable HEK.
In series [15] the target is T2, Histamine H1 receptor. The series can be described thus: H1 (central) Ligand binding assay. The note with it: Compound concentration 10.0 uM.
Another series addresses Aurora kinase B (Homo sapiens, UniProt Q96GD4). The series can be described thus: Inhibition of AURKB at compound concentration of 10.0 uM using the ScanMax (DiscoverX).
Series [16] addresses Beta-1 adrenergic receptor (Homo sapiens) (UniProt P08588). The series can be described thus: beta1 (h) Ligand binding assay. The note with it: Compound concentration 10.0 uM.
Series [17] addresses Thromboxane A2 receptor (Homo sapiens) (UniProt P21731). The series can be described thus: TXA2/PGH2 (h) Ligand binding assay. The settings on record: Compound concentration 10.0 uM.
The target in series [18] is Endothelin receptor type B (Homo sapiens) (UniProt P24530). Briefly: ETB (h) Ligand binding assay. The note with it: Compound concentration 10.0 uM.
Series [19] has as its target Serine/threonine-protein kinase BRSK2 (Homo sapiens, UniProt Q8IWQ3). Briefly: Inhibition of BRSK2 at compound concentration of 10.0 uM using the ScanMax (DiscoverX).
Series [20] deals with Atrial natriuretic peptide receptor 1 (Homo sapiens) (UniProt P16066). Briefly: ANP Ligand binding assay. The note with it: Compound concentration 10.0 uM.
In series [21] the target is Muscarinic acetylcholine receptor M2 (Homo sapiens) (UniProt P08172). The series can be described thus: M2 (h) Ligand binding assay. The note with it: Compound concentration 10.0 uM.
In series [22] the target is Cannabinoid receptor 2 (Homo sapiens) (UniProt P34972). Briefly: CB2 (h) (peripheral) Ligand binding assay. The settings on record: Compound concentration 10.0 uM.
The target of series [23] is D(1A) dopamine receptor (Homo sapiens) (UniProt P21728). The series can be described thus: D1 (h) Ligand binding assay. The settings on record: Compound concentration 10.0 uM.
The target in series [24] is D(1B) dopamine receptor (Homo sapiens) (UniProt P21918). The series can be described thus: D5 (h) Ligand binding assay. The note with it: Compound concentration 10.0 uM.
Series [25] addresses 5-hydroxytryptamine receptor 5A (Homo sapiens) (UniProt P47898). The series can be described thus: 5-HT5A (h) Ligand binding assay. The settings on record: Compound concentration 10.0 uM.
The target in series [26] is Delta-type opioid receptor (Homo sapiens) (UniProt P41143). The series can be described thus: Delta (h) Ligand binding assay. The settings on record: Compound concentration 10.0 uM.
Series [27] addresses GABA-A receptor; anion channel (Homo sapiens) (UniProt P14867+P47870+P18507+P28472+P48169+Q99928+Q9UN88+P34903+O00591+O14764+Q8N1C3+P18505+P78334+P47869+P31644+Q16445). Briefly: BZD (central) Ligand binding assay. The note with it: Compound concentration 10.0 uM. In kind it is protein-complex assay.
The target of series [28] is Adrenergic receptor alpha-1 (Homo sapiens) (UniProt P35348+P25100+P35368). Briefly: alpha1 (non-selective) Ligand binding assay. Format: protein assay. The note with it: Compound concentration 10.0 uM.
Series [29] has as its target Neuropeptide Y receptor type 2 (Homo sapiens) (UniProt P49146). The series can be described thus: Y2 (h) Ligand binding assay. The note with it: Compound concentration 10.0 uM.
In series [30] the target is B2 bradykinin receptor (Homo sapiens) (UniProt P30411). Briefly: B2 (h) Ligand binding assay. The settings on record: Compound concentration 10.0 uM.
The target of series [31] is D(1B) dopamine receptor (Homo sapiens) (UniProt P21918). The note with it: Compound concentration 10.0 uM.
For series [32], the target named is Neuropeptide Y receptor type 1 (Homo sapiens) (UniProt P25929). Briefly: Y1 (h) Ligand binding assay. The settings on record: Compound concentration 10.0 uM.
Series [33] can be described thus: Scintillation proximity assay (SPA). Details: species or system Homo sapiens. For orientation: In a scintillation proximity assay essentially only radioactivity close to the scintillant gives light.
Series [34] concerns the target Calcium/calmodulin-dependent protein kinase type 1B (Homo sapiens, UniProt Q6P2M8). Briefly: Inhibition of PNCK at compound concentration of 10.0 uM using the ScanMax (DiscoverX).
In series [35] the target is Somatostatin receptor (Homo sapiens) (UniProt P35346+P30874+P31391+P30872+P32745). The series can be described thus: Somatostatin Ligand binding assay. Format: protein assay. The note with it: Compound concentration 10.0 uM.

Molecules are shown by their SMILES. Calls of active or inactive are those of the source. The calls are words filed in the database; no cut-off is given here.

The values below come from ChEMBL document CHEMBL4507257, “Data for DCP probe ABT-100” (2021).

Sequence of Beta-1 adrenergic receptor (Homo sapiens) (P08588 whole entry, looked up): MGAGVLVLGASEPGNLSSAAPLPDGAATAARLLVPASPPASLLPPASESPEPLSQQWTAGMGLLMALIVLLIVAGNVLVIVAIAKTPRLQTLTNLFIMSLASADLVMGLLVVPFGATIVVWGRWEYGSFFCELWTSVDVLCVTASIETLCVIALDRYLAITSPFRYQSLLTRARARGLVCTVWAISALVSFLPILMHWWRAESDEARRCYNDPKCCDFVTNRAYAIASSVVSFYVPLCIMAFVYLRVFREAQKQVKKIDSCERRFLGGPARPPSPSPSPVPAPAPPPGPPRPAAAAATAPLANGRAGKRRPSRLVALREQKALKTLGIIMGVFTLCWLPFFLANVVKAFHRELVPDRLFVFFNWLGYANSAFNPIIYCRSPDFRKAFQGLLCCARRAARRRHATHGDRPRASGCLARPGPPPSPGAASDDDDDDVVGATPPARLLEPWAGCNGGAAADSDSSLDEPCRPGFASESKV
T2 sequence (P35367 whole entry): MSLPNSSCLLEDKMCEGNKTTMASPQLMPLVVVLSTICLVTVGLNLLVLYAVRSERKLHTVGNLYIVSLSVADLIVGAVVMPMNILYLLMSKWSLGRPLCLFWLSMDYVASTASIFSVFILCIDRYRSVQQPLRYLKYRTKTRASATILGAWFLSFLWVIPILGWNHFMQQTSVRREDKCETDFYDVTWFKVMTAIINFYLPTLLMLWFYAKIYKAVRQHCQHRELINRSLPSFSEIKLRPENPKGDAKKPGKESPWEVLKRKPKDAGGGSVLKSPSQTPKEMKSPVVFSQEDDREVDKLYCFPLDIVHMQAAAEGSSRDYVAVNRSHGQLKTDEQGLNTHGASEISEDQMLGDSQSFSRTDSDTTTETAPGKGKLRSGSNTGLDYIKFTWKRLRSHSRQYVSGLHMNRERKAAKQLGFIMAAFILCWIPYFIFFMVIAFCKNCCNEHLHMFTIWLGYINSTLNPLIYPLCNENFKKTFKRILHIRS
Sequence of D(1B) dopamine receptor (Homo sapiens) (P21918 whole entry): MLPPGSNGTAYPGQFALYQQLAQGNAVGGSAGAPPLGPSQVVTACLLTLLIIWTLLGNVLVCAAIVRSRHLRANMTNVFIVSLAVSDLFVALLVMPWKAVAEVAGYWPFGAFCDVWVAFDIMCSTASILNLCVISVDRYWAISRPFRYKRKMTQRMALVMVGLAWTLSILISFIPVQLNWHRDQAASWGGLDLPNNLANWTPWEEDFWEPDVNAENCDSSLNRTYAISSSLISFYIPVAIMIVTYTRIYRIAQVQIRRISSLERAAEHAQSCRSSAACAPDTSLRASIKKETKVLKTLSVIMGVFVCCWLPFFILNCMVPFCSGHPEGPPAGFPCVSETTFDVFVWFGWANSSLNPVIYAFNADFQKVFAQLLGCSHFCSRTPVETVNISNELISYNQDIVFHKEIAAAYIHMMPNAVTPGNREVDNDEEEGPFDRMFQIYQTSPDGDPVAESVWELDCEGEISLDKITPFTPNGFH
Sequence of D(2) dopamine receptor (Homo sapiens) (P14416 whole entry): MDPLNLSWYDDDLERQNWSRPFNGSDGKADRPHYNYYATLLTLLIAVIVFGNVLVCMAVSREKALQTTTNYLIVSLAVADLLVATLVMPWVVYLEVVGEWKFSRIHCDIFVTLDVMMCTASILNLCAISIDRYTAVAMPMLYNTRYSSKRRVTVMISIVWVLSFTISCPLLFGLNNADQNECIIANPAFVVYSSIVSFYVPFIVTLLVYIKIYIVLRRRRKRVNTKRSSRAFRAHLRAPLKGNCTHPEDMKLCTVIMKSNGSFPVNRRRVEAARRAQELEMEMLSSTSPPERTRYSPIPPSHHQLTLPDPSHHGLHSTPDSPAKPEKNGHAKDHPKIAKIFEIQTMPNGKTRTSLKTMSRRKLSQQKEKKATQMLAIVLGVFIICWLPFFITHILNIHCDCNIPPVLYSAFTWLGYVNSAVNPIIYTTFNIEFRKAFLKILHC
Sequence of Prostacyclin receptor (Homo sapiens) (P43119 whole entry): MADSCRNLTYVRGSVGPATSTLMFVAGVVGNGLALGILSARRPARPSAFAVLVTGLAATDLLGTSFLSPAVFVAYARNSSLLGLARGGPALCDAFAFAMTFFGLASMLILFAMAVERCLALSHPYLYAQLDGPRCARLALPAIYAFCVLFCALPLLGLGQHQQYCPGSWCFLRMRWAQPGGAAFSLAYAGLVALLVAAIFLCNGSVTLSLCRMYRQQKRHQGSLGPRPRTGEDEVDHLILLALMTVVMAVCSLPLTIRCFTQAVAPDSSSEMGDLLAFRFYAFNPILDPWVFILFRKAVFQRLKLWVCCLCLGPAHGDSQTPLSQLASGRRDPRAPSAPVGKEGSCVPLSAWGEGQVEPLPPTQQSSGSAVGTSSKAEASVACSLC
Sequence of Endothelin receptor type B (Homo sapiens) (P24530 whole entry): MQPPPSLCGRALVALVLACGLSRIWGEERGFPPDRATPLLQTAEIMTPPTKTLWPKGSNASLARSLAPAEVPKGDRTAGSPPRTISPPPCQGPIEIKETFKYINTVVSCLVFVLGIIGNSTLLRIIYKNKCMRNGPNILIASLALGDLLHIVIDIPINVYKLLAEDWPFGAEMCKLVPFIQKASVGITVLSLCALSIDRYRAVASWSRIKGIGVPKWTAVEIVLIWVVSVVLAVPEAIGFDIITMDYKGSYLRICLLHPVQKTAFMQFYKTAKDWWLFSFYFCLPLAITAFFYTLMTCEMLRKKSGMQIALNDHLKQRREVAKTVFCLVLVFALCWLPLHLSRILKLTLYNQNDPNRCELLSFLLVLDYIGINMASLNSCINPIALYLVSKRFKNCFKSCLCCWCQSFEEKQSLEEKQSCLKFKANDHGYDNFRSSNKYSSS
Sequence of Atrial natriuretic peptide receptor 1 (Homo sapiens) (P16066 whole entry, looked up): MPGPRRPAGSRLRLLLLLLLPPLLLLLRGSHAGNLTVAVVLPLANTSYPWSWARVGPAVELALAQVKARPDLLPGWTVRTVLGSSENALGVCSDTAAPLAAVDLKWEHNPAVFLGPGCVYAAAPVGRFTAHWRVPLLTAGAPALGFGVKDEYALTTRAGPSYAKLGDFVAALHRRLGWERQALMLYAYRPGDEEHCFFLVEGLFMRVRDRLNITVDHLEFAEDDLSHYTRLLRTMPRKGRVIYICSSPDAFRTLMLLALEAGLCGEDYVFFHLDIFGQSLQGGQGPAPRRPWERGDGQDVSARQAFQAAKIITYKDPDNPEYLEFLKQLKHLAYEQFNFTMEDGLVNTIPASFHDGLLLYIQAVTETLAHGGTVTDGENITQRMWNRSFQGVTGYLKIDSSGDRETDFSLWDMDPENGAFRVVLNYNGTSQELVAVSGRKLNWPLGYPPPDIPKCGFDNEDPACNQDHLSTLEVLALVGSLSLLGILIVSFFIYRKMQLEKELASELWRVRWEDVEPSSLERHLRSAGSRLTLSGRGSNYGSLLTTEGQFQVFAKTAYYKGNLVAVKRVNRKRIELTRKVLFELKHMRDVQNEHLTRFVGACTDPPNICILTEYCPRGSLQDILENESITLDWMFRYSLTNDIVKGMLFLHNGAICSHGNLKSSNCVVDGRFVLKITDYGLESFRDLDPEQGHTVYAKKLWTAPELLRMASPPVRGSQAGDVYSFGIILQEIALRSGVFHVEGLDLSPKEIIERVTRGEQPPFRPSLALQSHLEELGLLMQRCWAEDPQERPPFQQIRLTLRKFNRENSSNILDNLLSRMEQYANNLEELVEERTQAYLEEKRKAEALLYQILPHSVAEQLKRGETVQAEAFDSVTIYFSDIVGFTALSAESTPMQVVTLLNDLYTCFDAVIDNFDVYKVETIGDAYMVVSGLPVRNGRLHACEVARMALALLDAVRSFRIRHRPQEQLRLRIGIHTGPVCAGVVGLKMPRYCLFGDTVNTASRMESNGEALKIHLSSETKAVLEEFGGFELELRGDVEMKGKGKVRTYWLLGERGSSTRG
Sequence of Ephrin type-A receptor 1 (P21709 whole entry): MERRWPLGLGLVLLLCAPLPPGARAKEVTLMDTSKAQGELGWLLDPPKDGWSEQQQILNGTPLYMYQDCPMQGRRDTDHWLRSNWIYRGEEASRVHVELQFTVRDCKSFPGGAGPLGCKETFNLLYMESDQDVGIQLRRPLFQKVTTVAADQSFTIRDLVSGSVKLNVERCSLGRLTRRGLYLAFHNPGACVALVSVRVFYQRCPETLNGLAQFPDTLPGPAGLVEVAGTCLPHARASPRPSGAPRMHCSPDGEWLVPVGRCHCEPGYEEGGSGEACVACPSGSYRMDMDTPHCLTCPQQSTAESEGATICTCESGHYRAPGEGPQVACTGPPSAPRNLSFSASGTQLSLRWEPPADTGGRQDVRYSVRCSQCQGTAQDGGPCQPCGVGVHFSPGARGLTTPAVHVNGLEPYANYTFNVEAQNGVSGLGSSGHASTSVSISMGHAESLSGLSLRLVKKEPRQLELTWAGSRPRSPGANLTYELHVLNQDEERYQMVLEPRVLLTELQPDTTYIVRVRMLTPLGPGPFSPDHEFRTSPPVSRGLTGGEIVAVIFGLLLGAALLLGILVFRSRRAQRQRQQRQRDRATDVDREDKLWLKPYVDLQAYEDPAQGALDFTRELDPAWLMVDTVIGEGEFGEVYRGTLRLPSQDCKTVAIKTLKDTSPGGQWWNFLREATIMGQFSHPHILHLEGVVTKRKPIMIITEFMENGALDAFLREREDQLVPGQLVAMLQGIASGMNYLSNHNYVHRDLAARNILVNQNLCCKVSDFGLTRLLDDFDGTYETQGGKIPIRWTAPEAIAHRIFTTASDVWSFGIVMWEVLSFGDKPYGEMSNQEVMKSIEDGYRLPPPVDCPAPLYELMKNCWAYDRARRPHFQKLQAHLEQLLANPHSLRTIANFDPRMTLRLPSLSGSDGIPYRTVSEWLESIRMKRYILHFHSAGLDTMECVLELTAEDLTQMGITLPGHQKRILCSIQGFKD

As to `Cn1cncc1[C@@](O)(COc1ccc(C#N)cc1-c1ccc(OC(F)(F)F)cc1)c1ccc(C#N)cc1` [A-108], in series [1], the inhibition was 7.47%.
Regarding `Cn1cncc1[C@](O)(COc1ccc(C#N)cc1-c1ccc(OC(F)(F)F)cc1)c1ccc(C#N)cc1` [ABT-100], the Kd (in series [2]; at Ephrin type-A receptor 1; on Aurora kinase B; in [19]; in [34]) was > 10 µM (not active) in each case. Moreover, the inhibition in series [3] is 36%; in series [4], below 10%; in series [5] it was 53%; in series [6], below 10%; in series [7], 18%; in [8] it was 50%. In addition, the inhibition in [9] was below 10%; in [10], 12%; in [12] it was 4.25%; in series [13], below 10%; on Histamine H1 receptor [15], below 10%; in [16], 22%. The inhibition was 24% in series [17]; 21% in series [18]; below 10% in [20]; below 10% in series [21]; below 10% in series [22]; 31% in series [23]. Besides, the inhibition was 54% in [24]; 30% in [25]; 14% in series [26]; below 10% in [27]; below 10% in [28]; below 10% in series [29]. The inhibition was below 10% in [30], 4.79% in series [31], below 10% in series [32] and 13% in [35]. On sodium channel (site 2) (compound concentration 0.3 uM), the inhibition at 0.3 µM is reported as 15% (not active). For the same molecule, the inhibition at 1 µM (on sodium channel (site 2) (compound concentration 1 uM); in series [11] (compound concentration 1 uM)) was 10% (not active) throughout. The inhibition at 3 µM is 22% (not active) on sodium channel (site 2) (compound concentration 3 uM) and 37% (not active) in series [11] (compound concentration 3 uM). The inhibition at 10 µM at sodium channel (site 2) (compound concentration 10 uM) is 58%; in [11] (compound concentration 10 uM), 60%. Moreover, at Histamine H1 receptor [14], the Ki is 10 µM. Moreover, in series [33], the concentration for half-maximal inhibition (IC50) is 0.05 nM (active).

One may read the inhibition as the percentage by which the read-out fell short of the control. Broadly, the Kd is the free concentration of one partner at which half of the binding sites on the other are occupied at equilibrium, for simple one-to-one binding. The Ki is the equilibrium dissociation constant of an inhibitor or competing ligand from its target. The term IC50 denotes the concentration that gives 50% inhibition.
